These results are taken from patent publication US20050197350A1, “Novel quinoline, tetrahydroquinazoline, and pyrimidine derivatives and methods of treatment related to the use thereof” (TAISHO PHARMACEUTICAL CO., LTD., priority 2003, published 2005).

The first assay has as its system MCH receptors. Nature of the assay: MCH receptor activity class (method not given). The settings on record: MCH receptor activity class 1-3 (percent of control at 10^-7 M or IC50).
In the case of `CN(C)c1ccnc(N[C@H]2CC[C@@H](CNC(=O)Nc3c(Cl)cc(Cl)cc3Cl)CC2)n1` [compound 2415, N-[(cis-4-{[4-(dimethylamino)pyrimidin-2-yl]amino}cyclohexyl)methyl]-N′-(2,4,6-trichlorophenyl)urea], the class is 1 (Class 1: The value of percent of control at 10^−7 M was less than 40% or the value of IC50 was less than 50 nM.).

For `CN(C)c1ccnc(N[C@H]2CC[C@@H](NC(=S)NCc3cccc(Cl)c3)CC2)n1` [compound 2337], the class was 3 (Class 3 The value of percent of control at 10^−7 M was more than 60% or the value of IC50 was more than 200 nM.).

The assay is the same for the next values; noted with them: MCH receptor; class by percent of control at 10^-7 M or IC50.
Regarding `CN(C)c1cc(N[C@H]2CC[C@@H](NC(=O)c3cncc(Br)c3)CC2)nc2ccccc12` [compound 88], the class is given as 3 (Class 3 The value of percent of control at 10^−7 M was more than 60% or the value of IC50 was more than 200 nM.).

Turning to `Cc1ccc(C(=O)NC[C@H]2CC[C@@H](Nc3cc(N(C)C)c4ccccc4n3)CC2)c(F)c1F` [compound 187], the class was 3 (Class 3 The value of percent of control at 10^−7 M was more than 60% or the value of IC50 was more than 200 nM.).

In the case of `CN(C)c1cc(N[C@H]2CC[C@@H](NC(=O)c3ccc(F)c(F)c3F)CC2)nc2ccccc12` [compound 124], the class is on record as 3 (Class 3 The value of percent of control at 10^−7 M was more than 60% or the value of IC50 was more than 200 nM.).

Still in this assay, the particulars now being: activity class 1-3: percent of control at 10^-7 M or IC50.
In the case of `CN(C)c1ccnc(N[C@H]2CC[C@@H](CNCc3c(F)c(F)cc(F)c3F)CC2)n1` [compound 1533], the class is recorded as 3 (Class 3 The value of percent of control at 10^−7 M was more than 60% or the value of IC50 was more than 200 nM.).

On to `COCCOC(=O)N[C@H]1CC[C@@H](Nc2nccc(N(C)C)n2)CC1` [compound 1625], for which the class is 3 (Class 3 The value of percent of control at 10^−7 M was more than 60% or the value of IC50 was more than 200 nM.).

Staying with this assay, now noted: activity class per percent of control at 10^-7 M or IC50.
As to `COc1cc([N+](=O)[O-])ccc1C(=O)N[C@H]1CC[C@@H](Nc2nc3c(c(N(C)C)n2)CCCC3)CC1` [compound 1047], the class is on record as 2 (Class 2: The value of percent of control at 10^−7 M was from 40% to 60% or the value of IC′50 was from 50 nM to 200 nM.).

Staying with this assay, now noted: class 1-3 by percent of control at 10^-7 M or IC50.
In the case of `COc1ccc(CC(=O)N[C@H]2CC[C@@H](Nc3nc4c(c(N(C)C)n3)CCCC4)CC2)cc1OC` [compound 559], the class is recorded as 3 (Class 3 The value of percent of control at 10^−7 M was more than 60% or the value of IC50 was more than 200 nM.).

Consider `Cc1cc(C(=O)NC[C@H]2CC[C@@H](Nc3nccc(N(C)C)n3)CC2)c(C)o1` [compound 416], for which the class is 3 (Class 3 The value of percent of control at 10^−7 M was more than 60% or the value of IC50 was more than 200 nM.).

The assay is the same for the next values; noted with them: class by percent of control at 10^-7 M or IC50.
As to `CCOc1ccccc1CNC[C@H]1CC[C@@H](Nc2nc3c(c(N(C)C)n2)CCCC3)CC1` [compound 1365], the class was 2 (Class 2: The value of percent of control at 10^−7 M was from 40% to 60% or the value of IC′50 was from 50 nM to 200 nM.).

As to `CN(C)c1nc(N[C@H]2CC[C@@H](NCCN(CCC#N)c3ccccc3)CC2)nc2c1CCCC2` [compound 1490], the class is 1 (Class 1: The value of percent of control at 10^−7 M was less than 40% or the value of IC50 was less than 50 nM.).

In the case of `CN(C)c1ccnc(N[C@H]2CC[C@@H](NCc3c[nH]nc3-c3ccc(F)cc3)CC2)n1` [compound 1238], the class is reported as 3 (Class 3 The value of percent of control at 10^−7 M was more than 60% or the value of IC50 was more than 200 nM.).

Regarding `CN(C)c1ccnc(N[C@H]2CC[C@@H](NC(=O)c3cccc(C(F)(F)F)c3)CC2)n1` [compound 334, N-(cis-4-{[4-(dimethylamino)pyrimidin-2-yl]amino}cyclohexyl)-3-(trifluoromethyl)benzamide], the class is on record as 2 (Class 2: The value of percent of control at 10^−7 M was from 40% to 60% or the value of IC′50 was from 50 nM to 200 nM.).

`Cc1ccc(C(=O)CC(C(=O)N[C@H]2CC[C@@H](Nc3nccc(N(C)C)n3)CC2)c2cn(C)c3ccccc23)cc1` (relative stereo) [compound 862, N-(cis-4-{[4-(dimethylamino)pyrimidin-2-yl]amino}cyclohexyl)-2-(1-methyl-1H-indol-3-yl)-4-(4-methylphenyl)-4-oxobutanamide]: the class is recorded as 1 (Class 1: The value of percent of control at 10^−7 M was less than 40% or the value of IC50 was less than 50 nM.).

Consider `Cc1cc(C(=O)NC[C@H]2CC[C@@H](Nc3nccc(N(C)C)n3)CC2)ccc1[N+](=O)[O-]` [compound 940, N-[(cis-4-{[4-(dimethylamino)pyrimidin-2-yl]amino}cyclohexyl)methyl]-3-methyl-4-nitrobenzamide], for which the class is 1 (Class 1: The value of percent of control at 10^−7 M was less than 40% or the value of IC50 was less than 50 nM.).

As for `CCc1cccc(C(C)C)c1NC(=S)N[C@H]1CC[C@@H](Nc2nccc(N(C)C)n2)CC1` [compound 2262], the class is 3 (Class 3 The value of percent of control at 10^−7 M was more than 60% or the value of IC50 was more than 200 nM.).

Regarding `CN(C)c1ccnc(N[C@H]2CC[C@@H](CNCc3c[nH]nc3-c3ccc(C(F)(F)F)cc3)CC2)n1` [compound 1256], the class was 1 (Class 1: The value of percent of control at 10^−7 M was less than 40% or the value of IC50 was less than 50 nM.).

On to `C[C@@H](CNC[C@H]1CC[C@@H](Nc2nc3c(c(N(C)C)n2)CCCC3)CC1)N(Cc1ccccc1)Cc1ccccc1` [compound 1509], for which the class is on record as 3 (Class 3 The value of percent of control at 10^−7 M was more than 60% or the value of IC50 was more than 200 nM.).

With `CN(C)c1ccnc(N[C@H]2CC[C@@H](NC(=O)NCc3ccccc3F)CC2)n1` [compound 2233], the class is reported as 3 (Class 3 The value of percent of control at 10^−7 M was more than 60% or the value of IC50 was more than 200 nM.).

On to `CC(C)c1cc(Br)c(NC(=O)N[C@H]2CC[C@@H](Nc3cc(N(C)C)c4ccccc4n3)CC2)c(Br)c1` [compound 2162], for which the class was 3 (Class 3 The value of percent of control at 10^−7 M was more than 60% or the value of IC50 was more than 200 nM.).

As to `COc1ccc(CNC[C@H]2CC[C@@H](Nc3nc4c(c(N(C)C)n3)CCCC4)CC2)cc1OC` [compound 1435], the class is reported as 3 (Class 3 The value of percent of control at 10^−7 M was more than 60% or the value of IC50 was more than 200 nM.).

For the compound `CSc1ccc(NC(=O)N[C@H]2CC[C@@H](Nc3cc(N(C)C)c4ccccc4n3)CC2)cc1` [compound 2095], the class is 3 (Class 3 The value of percent of control at 10^−7 M was more than 60% or the value of IC50 was more than 200 nM.).

Take `Cc1ccc(C)c(NC(=O)N[C@H]2CC[C@@H](Nc3nc4c(c(N(C)C)n3)CCCC4)CC2)c1` [compound 1850]: the class is given as 3 (Class 3 The value of percent of control at 10^−7 M was more than 60% or the value of IC50 was more than 200 nM.).

With `CN(C)c1nc(N[C@H]2CC[C@@H](NC(=O)Nc3ccc(OC(F)F)cc3)CC2)nc2c1CCCC2` [compound 1876], the class is reported as 3 (Class 3 The value of percent of control at 10^−7 M was more than 60% or the value of IC50 was more than 200 nM.).

Still in this assay, the particulars now being: class by percent of control at 10^−7 M or IC50.
In the case of `Cc1nc(N[C@H]2CC[C@@H](NC(=O)c3ccc(Cl)cc3)CC2)nc(N(C)C)c1C` [compound 2847, 4-chloro-N-(cis-4-{[4-(dimethylamino)-5,6-dimethylpyrimidin-2-yl]amino}cyclohexyl)benzamide], the class is on record as 1 (Class 1: The value of percent of control at 10^−7 M was less than 40% or the value of IC50 was less than 50 nM.).
